Laboratory results as given in ChEMBL document CHEMBL5226390, “Synthesis and Structure-Activity Analysis of Icaritin Derivatives as Potential Tumor Growth Inhibitors of Hepatocellular Carcinoma Cells” (J Nat Prod, 2023).

What was measured:
Type in all cases: functional, cell-based
SMMC-7721 = assay: Antiproliferative activity against human SMMC-7721 cells assessed as reduction in cell viability incubated for 48 hrs by MTT assay
HepG2 = assay: Antiproliferative activity against human HepG2 cells assessed as reduction in cell viability incubated for 48 hrs by MTT assay; conditions: HepG2, 48 h
Hep 3B2 = assay: Antiproliferative activity against human Hep3B cells assessed as reduction in cell viability incubated for 48 hrs by MTT assay
[1] = Homo sapiens, SMMC-7721, 48 h, read-out: IC50

| IC50 (SMMC-7721; smmc-7721) | IC50 (HepG2) | IC50 (SMMC-7721; [1]) | SMILES | IC50 (Hep 3B2) |
| --- | --- | --- | --- | --- |
| Not Active | > 10 µM | – | COc1ccc(-c2oc3c(CC=C(C)C)c(OCCN4CCC(O)CC4)cc(O)c3c(=O)c2O[C@H]2O[C@H](C)[C@@H](O)[C@H](O)[C@@H]2O)cc1 | > 10 µM |
| Not Active | > 10 µM | – | COc1ccc(-c2oc3c(CC=C(C)C)c(OCCN4CCC(C)CC4)cc(O)c3c(=O)c2O[C@H]2O[C@H](C)[C@@H](O)[C@H](O)[C@@H]2O)cc1 | > 10 µM |
| – | 6.6 µM | > 10 µM | COc1ccc(-c2oc3c(CC=C(C)C)c(OCCCN4CCC(N5CCCCC5)CC4)cc(O)c3c(=O)c2O[C@H]2O[C@H](C)[C@@H](O)[C@H](O)[C@@H]2O)cc1 | 5.6 µM |
| Not Active | > 10 µM | – | CCCCN(CCCC)CCOc1cc(O)c2c(=O)c(O[C@H]3O[C@H](C)[C@@H](O)[C@H](O)[C@@H]3O)c(-c3ccc(OC)cc3)oc2c1CC=C(C)C | > 10 µM |
| – | 3 µM | > 10 µM | COc1ccc(-c2oc3c(CC=C(C)C)c(OCCCCN4CCCC4)cc(O)c3c(=O)c2O[C@H]2O[C@H](C)[C@@H](O)[C@H](O)[C@@H]2O)cc1 | 4 µM |
| – | > 10 µM | > 10 µM | CCN(CC)CCOCCOCCOc1cc(O)c2c(=O)c(O[C@H]3O[C@H](C)[C@@H](O)[C@H](O)[C@@H]3O)c(-c3ccc(OC)cc3)oc2c1CC=C(C)C | > 10 µM |
| Not Active | > 10 µM | – | COc1ccc(-c2oc3c(CC=C(C)C)c(OCCCCN4CCC(C)CC4)cc(O)c3c(=O)c2O[C@H]2O[C@H](C)[C@@H](O)[C@H](O)[C@@H]2O)cc1 | > 10 µM |
| Not Active | > 10 µM | – | COc1ccc(-c2oc3c(CC=C(C)C)c(OCCCN4CCC(O)CC4)cc(O)c3c(=O)c2O[C@H]2O[C@H](C)[C@@H](O)[C@H](O)[C@@H]2O)cc1 | 8.6 µM |
| – | 8.6 µM | 8.6 µM | COc1ccc(-c2oc3c(CC=C(C)C)c(OCCOCCN4CCCC4)cc(O)c3c(=O)c2O[C@H]2O[C@H](C)[C@@H](O)[C@H](O)[C@@H]2O)cc1 | 6.4 µM |
| Not Active | > 10 µM | – | COc1ccc(-c2oc3c(CC=C(C)C)c(OCCOCCN4CCC(O)CC4)cc(O)c3c(=O)c2O[C@H]2O[C@H](C)[C@@H](O)[C@H](O)[C@@H]2O)cc1 | > 10 µM |
| Not Active | > 10 µM | – | COc1ccc(-c2oc3c(CC=C(C)C)c(OCCCCN4CCOCC4)cc(O)c3c(=O)c2O[C@H]2O[C@H](C)[C@@H](O)[C@H](O)[C@@H]2O)cc1 | > 10 µM |
| – | 7.1 µM | > 10 µM | CCN(CC)CCOCCOCCOCCOc1cc(O)c2c(=O)c(O[C@H]3O[C@H](C)[C@@H](O)[C@H](O)[C@@H]3O)c(-c3ccc(OC)cc3)oc2c1CC=C(C)C | 7.2 µM |
| Not Active | > 10 µM | – | COc1ccc(-c2oc3c(CC=C(C)C)c(OCCN)cc(O)c3c(=O)c2O[C@H]2O[C@H](C)[C@@H](O)[C@H](O)[C@@H]2O)cc1 | > 10 µM |
| Not Active | > 10 µM | – | COc1ccc(-c2oc3c(CC=C(C)C)c(OCCCN4CCC(C)CC4)cc(O)c3c(=O)c2O[C@H]2O[C@H](C)[C@@H](O)[C@H](O)[C@@H]2O)cc1 | > 10 µM |
| – | 4.7 µM | > 10 µM | COc1ccc(-c2oc3c(CC=C(C)C)c(OCCCCN)cc(O)c3c(=O)c2O[C@H]2O[C@H](C)[C@@H](O)[C@H](O)[C@@H]2O)cc1 | 4.9 µM |
| – | 6.3 µM | 6.1 µM | COc1ccc(-c2oc3c(CC=C(C)C)c(OCCCN4CCCC4)cc(O)c3c(=O)c2O[C@H]2O[C@H](C)[C@@H](O)[C@H](O)[C@@H]2O)cc1 | 7.6 µM |
| Not Active | 9.8 µM | – | CCCCN(CCCC)CCCCOc1cc(O)c2c(=O)c(O[C@H]3O[C@H](C)[C@@H](O)[C@H](O)[C@@H]3O)c(-c3ccc(OC)cc3)oc2c1CC=C(C)C | > 10 µM |
